{"source": "patent EP2884284A1", "about": "“Dry diagnostic reagent” (priority 2013, dated 2015)", "key": {"[1]": {"test": "Hygroscopicity measurement by mass increase in a glove box at relative air humidity > 50%", "format": "physicochemical", "conditions": "1.0g sample, 22.5°C to […], 96 hours, referring to the initial mass", "description": "The hygroscopicity of compounds was measured by weighing (Mettler AT261 \"Delta Range\" balance) in the samples at the start of the experiment and at certain time points within a total period of 96 hours. The increase in mass (in %) was calculated for each sample as: (mt -mt0)/(mt0) × 100% [formula] • wherein mt is the mass of the sample at a certain time t and Mt0 is the mass of the sample at the start when placing it in the glove box."}, "citrated whole blood [2]": {"system": "citrated whole blood", "test": "ROTEM EXTEM assay, recalcification with CLG solutions, tissue factor activation", "conditions": "CLG solution 396 mg/mL, 4 µL in 300 µL citrated whole blood, extem reagent, student t test p = 0.05, n = 10", "description": "(§1) The influence of CLG on coagulation was determined using a ROTEM® device (TEM Innovations GmbH, Germany) and whole blood from healthy volunteers using either the EXTEM assay or the NATEM assay. Coagulation was therefore either initiated using the tissue factor based ex-tem® reagent (+recalcification) (TEM Innovations GmbH, Germany) or only by recalcification of the citrated whole blood sample. […]; ROTEM® reagent; TEM Innovations GmbH, Germany). Solutions of CLG were taken to show the influence of the substance independent of the dissolution behavior of the substance.\nIn detail, 300 µL citrated whole blood were taken, mixed with 4 µL of the respective solution of CLG of each concentration or of the star-tem@ reagent, and 16 µL of a 0.9% (m/V) NaCl-solution in ultrapure water. Blood clotting was initiated using the tissue factor based extem® reagent. […] Therefore it is possible to recalcify standard citrated whole blood and restore its clotting ability by using CLG solutions. This is depicted in Figure 2, wherein the data of a ROTEM experiment using two differently concentrated solutions of CLG (320 mg/mL and 396 mg/mL) were used. […]"}, "citrated whole blood [3]": {"system": "citrated whole blood", "test": "ROTEM NATEM assay, recalcification only (contact pathway activation)", "description": "as §1\nIn addition the clotting properties were investigated when coagulation of whole blood (using 300µL of citrated whole blood) was not initiated using tissue factor but only contact pathway activation, i.e. the citrated whole blood was recalcified using either the star-tem@ reagent or a CLG solution. The measurement was performed according to the automated ROTEM® sequence. Normal values were taken from the \"expected values\" section of the \"instructions for use\" sheet provided together with the star-tem@ reagent. A comparison was carried out with the star-tem@ reagent and the CLG solution with a concentration of 396 mg/mL of example 2. […] Table 1: Measurement values of the data determined in Example 2"}, "citrated whole blood [4]": {"system": "citrated whole blood", "test": "ROTEM ex-tem assay, recalcification with freeze-dried pellets", "conditions": "p = 0.05, n = 10", "description": "The compatibility with coagulation measurement was determined using the ROTEM® device. The measurement was conducted according to the respective automated ROTEM® sequence. 300 µL citrated whole blood (obtained from healthy individuals) were used for each measurement. The pipetting of the respective liquid reagents was performed according to the sequence or was skipped for the solid reagents. […] Coagulation was initiated using the tissue factor based ex-tem® reagent.\nThe ex-tem® assay was selected because of the tissue factor coagulation activation and the resulting short clotting times (CT). Therefore it was possible to investigate whether the freeze-dried products containing a high amount of solid would dissolve rapidly enough to assure complete recalcification and clotting times within a normal range."}, "[5]": {"test": "Glass transition temperature Tg by differential scanning calorimetry", "format": "physicochemical", "description": "Hydranal® Coulomat AG Oven served as a reagent. About 10 mg of the substance was used for an expected residual moisture between 5 - 10%(m/m) and about 50 - 80 mg were used for an expected moisture content […]. […]\nPrimary drying was carried out at Tinlet = -30° C / 30mtorr for 15h followed by secondary drying at 40°C / 30mtorr for 6h with a heating rate between the two steps of 0.3 °C/min. The glass transition temperature as well as the residual moisture content were measured after freeze drying for the respective substance."}, "[6]": {"test": "Dissolution of the freeze-dried product on contact with a water surface", "format": "physicochemical", "conditions": "freeze-dried from c = 320 mg/mL", "text": "In addition, no collapse or meltback could be detected when CLG was freeze-dried appropriately. CLG is, however, evidently metastable as a solid, i.e. amorphous."}, "[7]": {"conditions": "300µL citrated whole blood, CLG solution 396 mg/mL or star-tem reagent, no tissue factor"}, "[8]": {"conditions": "freeze-dried CLG pellets, 4µmol equivalent"}, "[9]": {"conditions": "freeze-dried CLG pellets, lower amount of CLG"}}, "data": [{"substance": "calcium lacto gluconate [CLG]", "values": [{"measurement": "mass increase", "setting": "[1]", "value": "< 0.1", "unit": "%"}, {"measurement": "clotting time (CT), difference to star-tem solution", "setting": "citrated whole blood [2]", "value": "no significant (student t test; probability p = 0.05, n = 10) difference"}, {"measurement": "CFT", "setting": "citrated whole blood [3]; [7]", "value": 183.00}, {"measurement": "alpha", "setting": "citrated whole blood [3]; [7]", "value": 54.67, "unit": "°"}, {"measurement": "difference between clotting time", "setting": "citrated whole blood [3]; CLG solution 396 mg/mL versus star-tem reagent", "value": "around 3%"}, {"measurement": "A10", "setting": "citrated whole blood [3]; amplitude after 10 minutes, 300µL citrated whole blood, CLG solution 396 mg/mL or star-tem reagent, no tissue factor", "value": 42.33}, {"measurement": "MCF", "setting": "citrated whole blood [3]; maximum clot firmness, 300µL citrated whole blood, CLG solution 396 mg/mL or star-tem reagent, no tissue factor", "value": 51.33}, {"measurement": "CT values, difference to reference", "setting": "citrated whole blood [4]; freeze-dried CLG pellets versus 20µL star-tem reagent, ex-tem activation", "value": "no significant (p = 0.05; n = 10) difference"}, {"measurement": "amplitudes after 10 minutes reaction time (A10), difference to reference", "setting": "citrated whole blood [4]; [8]", "value": "Neither the clot formation times (CFT) nor the amplitudes after 10 minutes reaction time (A10) of the 4µmol equivalent did significantly (p = 0.05, n = 10) differ from the reference"}, {"measurement": "clot formation times (CFT), difference to reference", "setting": "citrated whole blood [4]; [8]", "value": "Neither the clot formation times (CFT) nor the amplitudes after 10 minutes reaction time (A10) of the 4µmol equivalent did significantly (p = 0.05, n = 10) differ from the reference"}, {"measurement": "A10, difference to reference", "setting": "citrated whole blood [4]; [9]", "value": "slight but significant (p = 0.05, n = 10) variations"}, {"measurement": "CFT, difference to reference", "setting": "citrated whole blood [4]; [9]", "value": "slight but significant (p = 0.05, n = 10) variations"}, {"measurement": "glass transition", "setting": "[5]; 1:1 (CL:CG) mixture, moisture content 5.71 % [m/m]", "value": "~87.20", "unit": "°C"}, {"measurement": "glass transition", "setting": "[5]; 2:1 (CL:CG) mixture, moisture content 6.52 % [m/m]", "value": "about 84.90 °C"}, {"measurement": "Tg", "setting": "[5]; CLG ratio 0, moisture content 0 %(m/m)", "value": 110.03, "unit": "°C"}, {"measurement": "Tg", "setting": "[5]; CLG ratio 0, moisture content 3.69 %(m/m)", "value": 79.16, "unit": "°C"}, {"measurement": "Tg", "setting": "[5]; CLG ratio 0, moisture content 9.86 %(m/m)", "value": 29.77, "unit": "°C"}, {"measurement": "Tg", "setting": "[5]; CLG ratio 0, moisture content 14.30 %(m/m)", "value": 14.26, "unit": "°C"}, {"measurement": "Tg", "setting": "[5]; CLG ratio 28.93, moisture content 0 %(m/m)", "value": 125.01, "unit": "°C"}, {"measurement": "Tg", "setting": "[5]; CLG ratio 28.93, moisture content 4.54 %(m/m)", "value": 92.14, "unit": "°C"}, {"measurement": "Tg", "setting": "[5]; CLG ratio 28.93, moisture content 5.71 %(m/m)", "value": 87.20, "unit": "°C"}, {"measurement": "Tg", "setting": "[5]; CLG ratio 28.93, moisture content 8.30 %(m/m)", "value": 61.35, "unit": "°C"}, {"measurement": "Tg", "setting": "[5]; CLG ratio 28.93, moisture content 9.91 %(m/m)", "value": 40.75, "unit": "°C"}, {"measurement": "Tg", "setting": "[5]; CLG ratio 50.44, moisture content 6.52 %(m/m)", "value": 84.9, "unit": "°C"}, {"measurement": "Tg", "setting": "[5]; CLG ratio 62.23, moisture content 0 %(m/m)", "value": 144.37, "unit": "°C"}, {"measurement": "Tg", "setting": "[5]; CLG ratio 62.23, moisture content 10.00 %(m/m)", "value": 58.91, "unit": "°C"}, {"measurement": "Tg", "setting": "[5]; CLG ratio 62.23, moisture content 10.37 %(m/m)", "value": 56.54, "unit": "°C"}, {"measurement": "Tg", "setting": "[5]; CLG ratio %(m(CL)/m(CLG)) = 100, moisture content 0 %(m/m) (annealed)", "value": 152.06, "unit": "°C"}, {"measurement": "Tg", "setting": "[5]; CLG ratio %(m(CL)/m(CLG)) = 100, moisture content 5.20 %(m/m)", "value": 112.86, "unit": "°C"}, {"measurement": "Tg", "setting": "[5]; CLG ratio %(m(CL)/m(CLG)) = 100, moisture content 10.15 %(m/m)", "value": 58.45, "unit": "°C"}, {"measurement": "Tg", "setting": "[5]; CLG ratio %(m(CL)/m(CLG)) = 100, moisture content […](m/m)", "value": 34.39, "unit": "°C"}, {"measurement": "dissolution of the freeze-dried product", "setting": "[6]", "value": "dissolved rapidly and completely after a few seconds"}]}]}
